One series in a line: Solubility in water. Format: physicochemical. The settings on record: for Solubility in water (in words): Table 1 and text. The source says:
Solubility properties of tributyltin derivatives [formula]

In series [1] the test system is Alternaria tenuis CBS 10426. Description: Microbiological test. Format: cell-based. The source says:
(§1) In the test for microbiocidal activity the compounds listed hereinbelow yielded the values indicated in the following Table: No. Compound __________________________________________________________________________ 1 (n--C4 H9)3 Sn--S--CH2 --CH2 --COO.(CH 2 --CH2 --O--n H(n~9) 2 (C6 H5)3 Sn--S--(CH2)3 --SO3.Na CH3 .vertline. 3 --Sn--S--CH2 --CH2 --COO--(CH2 --CH2 --O)n.H(n ~9) .vertline. CH3 4 (n--C4 H9)3 Sn--S--CH2 --COO.H.N(CH2 CH2 OH)3 5 (n--C4 H9)3 Sn--S--(CH2)2 --COO.H.N(CH2 CH2 OH)3 6 (n--C4 H9)3 Sn--S--CH2 --CO.N(CH2 CH2 OH)2 __________________________________________________________________________

For series [2], the system named is Arizona paracolon 7:1.7,8. The series is described as follows: Microbiological test. Format: cell-based.
Text: as §1

The subject of series [3] is Aspergillus flavus CBS 12662. Description: Microbiological test. It is filed as cell-based.
Text: as §1

Series [4] has as its system Aspergillus niger ATCC 6275. The series is described as follows: Microbiological test. Format: cell-based.
Text: as §1

Series [5] concerns Bacillus subtilis NCTC 6460. The series is described as follows: Microbiological test. Format: cell-based.
Text: as §1

In another series the test system is Candida albicans CBS. Description: Microbiological test. Format: cell-based.
Text: as §1

Series [6] deals with Chaetomium globosum CBS 14851. The series is described as follows: Microbiological test. Format: cell-based.
Text: as §1

For a further series, the system named is Coniphora cerebella CBS. Description: Microbiological test. Format: cell-based.
Text: as §1

Series [7] deals with Corynebacterium diphteroides FUR. The series is described as follows: Microbiological test. Format: cell-based.
Text: as §1

For series [8], the system named is Escherichia coli NCTC 8195. The series is described as follows: Microbiological test. Format: cell-based.
Text: as §1

For series [9], the system named is Escherichia coli RP 45410. The series is described as follows: Microbiological test. It is filed as cell-based.
Text: as §1

A further series relates to Fusarium oxysporum CBS. The series is described as follows: Microbiological test. It is filed as cell-based.
Text: as §1

Another series concerns Lenzites abietina CBS. Description: Microbiological test. It is filed as cell-based.
Text: as §1

In series [10] the test system is Mycobacterium phlei CITM 61. Description: Microbiological test. It is filed as cell-based.
Text: as §1

A further series deals with Paecilomyces varioti CBS. Description: Microbiological test. It is filed as cell-based.
Text: as §1

Series [11] deals with Pasteurella multocida K753. Description: Microbiological test. Format: cell-based.
Text: as §1

The subject of series [12] is Penicillium expansum SMC 36. Description: Microbiological test. It is filed as cell-based.
Text: as §1

The subject of series [13] is Penicillium funiculosum CEB 329631. Description: Microbiological test. It is filed as cell-based.
Text: as §1

Series [14] deals with Polystictus versicolor EMPA61. Description: Microbiological test. Format: cell-based.
Text: as §1

Another series concerns Poria vaporia CBS. The series is described as follows: Microbiological test. Format: cell-based.
Text: as §1

Series [15] deals with Pseudomonas fluorescens NCTC 4755. The series is described as follows: Microbiological test. It is filed as cell-based.
Text: as §1

The test system of series [16] is Pullularia pullulans CBS 10767. Description: Microbiological test. Format: cell-based.
Text: as §1

The test system of the next series is Salmonella pullorum VBIZ. The series is described as follows: Microbiological test. Format: cell-based.
Text: as §1

Another series has as its system Sarcina ureae SMB 81. The series is described as follows: Microbiological test. It is filed as cell-based.
Text: as §1

Series [17] deals with Stachybotrys atra CBS 32465. The series is described as follows: Microbiological test. Format: cell-based.
Text: as §1

Series [18] deals with Staphylococcus aureus SG 511 M6. The series is described as follows: Microbiological test. It is filed as cell-based.
Text: as §1

Series [19] relates to Staphylococcus aureus SG 511. Description: Microbiological test. It is filed as cell-based.
Text: as §1

The test system of series [20] is Streptococcus agalactiae M100. Description: Microbiological test. It is filed as cell-based.
Text: as §1

Series [21] concerns Streptococcus faecalis NCTC 8619. The series is described as follows: Microbiological test. It is filed as cell-based.
Text: as §1

In series [22] the test system is Trichoderma viride CEB 3334.2. Description: Microbiological test. Format: cell-based.
Text: as §1

A further series relates to Trichophyton gypseum CBS. Description: Microbiological test. Format: cell-based.
Text: as §1

The subject of series [23] is Salmonella cholerae-suis VBIB. Format: cell-based.

Take `CCC[CH2][Sn]([CH2]CCC)([CH2]CCC)[S]CC(O)CO` (stereo not drawn) [--CH2 --CH--CH2]: the “Solubility in water (in words)” value in “Solubility in water” is “satisfactory”.

As for `CCC[CH2][Sn]([CH2]CCC)([CH2]CCC)[S]CC(=O)[O-].OCC[NH+](CCO)CCO` [Compound 4, triethylammonium S-tri-n-butyl tin-thioglycolate], the Activity range is given as 10 ppm in series [1]; greater than 300 ppm in series [2]; 10 ppm in [3]; 10 ppm in [4]; 30 ppm in [5]; 10 ppm in the series with Candida albicans CBS. In addition, the Activity range in series [6] was determined as 10 ppm; with Coniphora cerebella CBS it was 10 ppm; in series [7], 30 ppm; in series [8] it was 30 ppm; in series [9] it was 30 ppm; in the series on Fusarium oxysporum CBS it was 10 ppm. In addition, the Activity range was found to be 10 ppm with Lenzites abietina CBS; 30 ppm in series [10]; 10 ppm in the series with Paecilomyces varioti CBS; 30 ppm in series [11]; 10 ppm in series [12]; 30 ppm in series [13]. The Activity range was 100 ppm in series [14]; 10 ppm in the series on Poria vaporia CBS; greater than 300 ppm in [15]; 10 ppm in series [16]; greater than 300 ppm in the series on Salmonella pullorum VBIZ; 30 ppm in the series on Sarcina ureae SMB 81. Besides, the Activity range is recorded as 10 ppm in series [17]; 30 ppm in series [18]; 30 ppm in series [19]; 30 ppm in series [20]; 30 ppm in [21]; 10 ppm in series [22]. The Activity range in the series on Trichophyton gypseum CBS is listed as 10 ppm; in series [23] it was greater than 300 ppm.

For the compound `CCC[CH2][Sn]([CH2]CCC)([CH2]CCC)[S]CCC(=O)[O-].OCC[NH+](CCO)CCO` [Compound 5, triethanolammonium S-tri-n-butyl tin-β-mercaptopropionate], the Activity range is no more than 3 ppm in series [1]; greater than 300 ppm in series [2]; 10 ppm in series [3]; 10 ppm in series [4]; 10 ppm in [5]; 10 ppm in the series with Candida albicans CBS. Moreover, the Activity range in series [6] is reported as no more than 3 ppm; in the series on Coniphora cerebella CBS, 10 ppm; in series [7] it was 10 ppm; in series [8] it was greater than 300 ppm; in [9] it was greater than 300 ppm; in the series on Fusarium oxysporum CBS, 10 ppm. The Activity range with Lenzites abietina CBS is recorded as 10 ppm; in [10], 10 ppm; in the series on Paecilomyces varioti CBS it was no more than 3 ppm; in series [11], 30 ppm; in series [12], 10 ppm; in series [13], 10 ppm. Moreover, the Activity range is on record as 30 ppm in [14]; 10 ppm with Poria vaporia CBS; 30 ppm in [15]; 10 ppm in series [16]; greater than 300 ppm in the series with Salmonella pullorum VBIZ; 30 ppm in the series on Sarcina ureae SMB 81. Also, the Activity range in [17] is given as no more than 3 ppm; in series [18], 30 ppm; in [19], 10 ppm; in series [20], 30 ppm; in series [21], 100 ppm; in [22], 10 ppm. For the same compound, the figures for the Activity range (in the series with Trichophyton gypseum CBS; in series [23]) were 10 ppm and greater than 300 ppm, respectively.

Turning to `CCC[CH2][Sn]([CH2]CCC)([CH2]CCC)[S]CC(=O)N(CCO)CCO` [Compound 6, S-tri-n-butyl tin-thioglycolic acid diethanolamide], the Activity range was no more than 3 ppm in [1]; greater than 300 ppm in series [2]; 10 ppm in series [3]; 10 ppm in series [4]; no more than 1 ppm in series [5]; 10 ppm in the series with Candida albicans CBS. The Activity range in series [6] is on record as no more than 3 ppm; with Coniphora cerebella CBS, 10 ppm; in [7], no more than 1 ppm; in [8], 30 ppm; in series [9], 30 ppm; in the series on Fusarium oxysporum CBS, 10 ppm. Moreover, the Activity range in the series with Lenzites abietina CBS was 10 ppm; in series [10] it was no more than 1 ppm; in the series with Paecilomyces varioti CBS, no more than 3 ppm; in [11], 30 ppm; in series [12] it was 10 ppm; in series [13] it was 30 ppm. The Activity range in series [14] is 30 ppm; in the series on Poria vaporia CBS, 10 ppm; in [15], 30 ppm; in series [16], 10 ppm; in the series on Salmonella pullorum VBIZ it was greater than 300 ppm; with Sarcina ureae SMB 81 it was no more than 1 ppm. The Activity range is no more than 3 ppm in series [17]; 3 ppm in series [18]; 30 ppm in series [19]; 3 ppm in [20]; 30 ppm in series [21]; 10 ppm in [22]. For the same compound, the Activity range in the series on Trichophyton gypseum CBS is 10 ppm; in [23], greater than 300 ppm.

For `CCC[CH2][Sn]([CH2]CCC)([CH2]CCC)[O][Sn]([CH2]CCC)([CH2]CCC)[CH2]CCC` [TBTO, bis-(tri-n-butyltin)-oxide], in “Solubility in water” (Table 1, comparison), the Solubility in water was 20 ppm. In the series “Solubility in water”, the “Solubility in water (in words)” value is “poor”.
